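Step 1: Grow cells in 96-well plates. Step 2: Expose to compound for 48 hours at 5 concentrations. Step 3: Interpolate endpoints linearly; if unreached, use highest concentration. GI50: concentration for 50% inhibition of growth. TGI: concentration producing complete growth inhibition.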
Columns and labels:
Assay in all cases: NCI tumour cell line growth inhibition, 48 h
[1] = tested on: MOLT-4 leukemia
[2] = tested on: COLO 205 colon
[3] = tested on: SK-MEL-28 melanoma
[4] = tested on: ACHN renal
[5] = tested on: XF 498 CNS
[6] = tested on: K-562 leukemia
[7] = tested on: SK-MEL-2 melanoma
[8] = tested on: DMS 273 small cell lung
[9] = tested on: NCI-H460 lung
[10] = tested on: NCI-H226 lung

Row | SMILES | TGI [1] | TGI [2] | TGI [3] | TGI [4] | TGI [5] | TGI [6] | TGI [7] | TGI [8] | TGI [9] | TGI [10] | GI50 [1] | GI50 [2] | GI50 [4] | GI50 [6] | GI50 [7] | GI50 [8] | GI50 [9] | GI50 [3] | GI50 [10]
1 | O=C(c1ccccc1)C1OC12C(=O)Nc1ccccc12 (stereo unspecified) | 34.1 µM | 34.5 µM | > 100 µM | > 100 µM | > 100 µM | 24.3 µM | > 100 µM | > 100 µM | > 100 µM | > 100 µM |  |  |  |  |  |  |  |  | 
2 | O=C1OC2CCCC[C@@H]2C2C[C@]34CCCCC3[C@@H](C(=O)O4)C12 (stereo partly specified) | > 100 µM | > 100 µM | > 100 µM | > 100 µM | > 100 µM | > 100 µM | > 100 µM |  | > 100 µM | > 100 µM |  |  |  |  |  |  |  |  | 
3 | CN(C)c1cc[c]([Sn]([c]2ccc(N(C)C)cc2)([c]2ccc(N(C)C)cc2)[c]2ccc(N(C)C)cc2)cc1 | 6.22 µM | 17.7 µM |  | 34.2 µM |  | 7.33 µM | 29.3 µM | 16.4 µM | 28.1 µM |  | 1.93 µM | 4.19 µM | 14.5 µM | 2.02 µM | 6.83 µM | 4.76 µM | 12 µM |  | 
4 | O=c1c2cc(Br)cc(Br)c2nc(CCCl)n1CCO | > 100 µM | > 100 µM | > 100 µM | > 100 µM | > 100 µM | > 100 µM | > 100 µM |  | > 100 µM | > 100 µM |  |  |  |  |  |  |  |  | 
5 | COc1ccc(CC2NCCc3cc(OC)c(OC)cc32)cc1Br (stereo unspecified) | 73.3 µM | 32.6 µM | 33.7 µM | > 100 µM | 47 µM | 45.6 µM | 61.6 µM | 57.5 µM | > 71.4 µM | 73.9 µM |  |  |  |  |  |  |  |  | 
6 | CCN(CC)c1ccc(N=Nc2ccc(-c3nc4ccc[n+](C)c4s3)cc2)cc1 | 24.6 µM | 11.4 µM |  |  |  | > 100 µM | 25.5 µM | 13.5 µM | 21.5 µM | 26.1 µM |  |  |  |  |  |  |  |  | 
7 | CCOC(=O)NC(=O)c1cn(CCCOC(=O)CCCCCCCCCCC(=O)OCCCn2cc(C(=O)NC(=O)OCC)c(=O)[nH]c2=O)c(=O)[nH]c1=O | > 100 µM | > 100 µM | > 100 µM | > 100 µM | > 100 µM | > 100 µM | > 100 µM |  | > 100 µM | > 100 µM |  |  |  |  |  |  |  |  | 
8 | C1C[OH+]CC[OH+]CC[OH+]CC[OH+]CC[OH+]1.[Cl-].[V] | > 100 µM | > 100 µM | > 100 µM | > 100 µM |  | > 100 µM | > 100 µM | > 100 µM | > 100 µM | > 100 µM | > 100 µM | > 100 µM | 75 µM | > 100 µM | 48.2 µM | 53 µM | 46.2 µM | 25.1 µM | 28.1 µM
9 | N#CC1CC2(C1)OCCS2 (stereo unspecified) | > 100 µM | > 100 µM | > 100 µM | > 100 µM |  | > 100 µM | > 100 µM | > 100 µM | > 100 µM | > 100 µM |  |  |  |  |  |  |  |  | 
10 | O=C1CCC(O)=C1N=Nc1ccccc1 | > 100 µM | > 100 µM | > 100 µM | > 100 µM |  | > 100 µM | > 100 µM | > 100 µM | > 100 µM | > 100 µM |  |  |  |  |  |  |  |  | 
11 | O=C(Nc1c(Cl)cc([N+](=O)[O-])cc1Cl)C(=O)C(C1OC(=O)c2ccccc21)[N+](=O)[O-] (stereo unspecified) | > 100 µM | > 100 µM | > 100 µM | > 100 µM | > 100 µM | > 100 µM | > 100 µM |  | > 100 µM | > 100 µM |  |  |  |  |  |  |  |  | 
12 | C=CCc1ccc(Oc2cc(CC=C)c3c(c2O)O[C@@H](CO)[C@H]3c2ccc(O)c(-c3cc(CC=C)ccc3O)c2)cc1 |  | > 100 µM | > 100 µM | > 100 µM |  | > 100 µM | 65.7 µM | > 100 µM | > 100 µM | > 100 µM |  |  |  |  |  |  |  |  | 
13 | O=C1CSC(/C(=N/Nc2ccccc2)c2nc3ccccc3[nH]2)=N1 |  | > 100 µM | 79 µM | > 100 µM | 73.4 µM | > 100 µM | > 100 µM | 47.3 µM | > 100 µM | 59.7 µM |  |  |  |  |  |  |  |  | 
14 | O=C1[C@@H]2C(c3ccccc3F)=NO[C@@H]2C(=O)N1c1ccc(Cc2ccc(N3C(=O)[C@H]4C(c5ccccc5F)=NO[C@H]4C3=O)cc2)cc1 | > 64.4 µM | > 100 µM | > 100 µM | > 100 µM | > 100 µM | > 100 µM | > 100 µM | > 100 µM | > 100 µM | > 100 µM |  |  |  |  |  |  |  |  | 
15 | COc1cc(/C=C(\C#N)c2ccccc2)cc(OC)c1 | 58.6 µM | > 100 µM | > 100 µM | > 100 µM | > 100 µM | 79.7 µM | > 100 µM |  | > 100 µM | > 100 µM |  |  |  |  |  |  |  |  | 
16 | O=C1CC2CCCC23CC2(CCN13)OCCO2 (stereo unspecified) | > 100 µM | > 100 µM | > 100 µM | > 100 µM | > 100 µM | > 100 µM | > 100 µM | > 100 µM | > 100 µM | > 100 µM |  |  |  |  |  |  |  |  | 
17 | Clc1ccc2c(c1)-c1c3c(nn1-c1ccccc1)-c1ccccc1SC3O2 (stereo unspecified) | > 100 µM | > 100 µM | > 100 µM | > 100 µM | > 100 µM | > 100 µM | > 100 µM | > 100 µM | > 100 µM |  |  |  |  |  |  |  |  |  | 
18 | CCCCCCCCCCCC(=O)OCC1OC(OC)C(NC(=O)N(CCCl)N=O)C(O)C1O (stereo unspecified) | 16.1 µM | 59 µM | 35.6 µM | 35.6 µM | 27.6 µM | 31.1 µM | 54.5 µM | 30.6 µM | 20.5 µM | 59.3 µM |  |  |  |  |  |  |  |  | 
19 | O=C1NC2OC(C(O)CO)C(O)C2O1 (stereo unspecified) | > 100 µM | > 100 µM | > 100 µM | > 100 µM | > 100 µM | > 100 µM | > 100 µM | > 100 µM | > 100 µM |  |  |  |  |  |  |  |  |  | 
20 | O=C(O)[C@H](NS(=O)(=O)c1ccc([N+](=O)[O-])cc1)c1ccccc1 | > 100 µM | > 100 µM | > 100 µM | > 100 µM | > 100 µM | > 100 µM | > 100 µM | > 100 µM | > 100 µM | > 100 µM |  |  |  |  |  |  |  |  | 
21 | O=C(NCO)NCOCn1c(=O)n(CO)c(=O)n(CO)c1=O | > 65.9 µM | > 71.8 µM | 45.1 µM | > 100 µM | 55.5 µM | > 79.2 µM | 33.8 µM |  | > 94.8 µM | > 100 µM |  |  |  |  |  |  |  |  | 

From PubChem BioAssay (NCI)
